Experimental data as given in patent US20240002342A1, “HERBICIDAL DERIVATIVES” (SYNGENTA CROP PROTECTION AG, priority 2020, published 2024).

Columns and labels:
Assay type in all cases: in vivo
[1] = tested on: Amaranthus retoflexus (AMARE); test: Post-emergence herbicidal test; details: 1000 g/ha unless otherwise stated, evaluated after 13 days
Method: (§1) Seeds of a variety of test species are sown in standard soil in pots (Amaranthus retoflexus (AMARE), Solanum nigrum (SOLNI), Setaria faberi (SETFA), Lolium perenne (LOLPE), Echinochloa crus-galli (ECHCG), Ipomoea hederacea (IPOHE)). After 8 days cultivation under controlled conditions in a glasshouse (at 24° C./16° C., day/night; 14 hours light; 65% humidity), the plants are sprayed with an aqueous spray solution derived from the formulation of the technical active ingredient in acetone/water (50:50) solution containing 0.5% Tween 20 (polyoxyethelyene sorbitan monolaurate, CAS RN 9005-64-5). Compounds are applied at 1000 g/ha unless otherwise stated. The test plants are then grown in a glasshouse under controlled conditions in a glasshouse (at 24° C./16° C., day/night; 14 hours light; 65% humidity) and watered twice daily. After 13 days the test is evaluated for the percentage damage caused to the plant. The biological activities are shown in the following table on a five-point scale (5=81-100%; 4=61-80%; 3=41-60%; 2=21-40%; 1=0-20%).

[2] = tested on: Echinochloa crus-galli (ECHCG); test: Post-emergence herbicidal test; details: 1000 g/ha unless otherwise stated, evaluated after 13 days
Method: as §1

[3] = tested on: Ipomoea hederacea (IPOHE); test: Post-emergence herbicidal test; details: 1000 g/ha unless otherwise stated, evaluated after 13 days
Method: as §1

[4] = tested on: Lolium perenne (LOLPE); test: Post-emergence herbicidal test; details: 1000 g/ha unless otherwise stated, evaluated after 13 days
Method: as §1

[5] = tested on: Setaria faberi (SETFA); test: Post-emergence herbicidal test; details: 1000 g/ha unless otherwise stated, evaluated after 13 days
Method: as §1

[6] = tested on: Solanum nigrum (SOLNI); test: Post-emergence herbicidal test; details: 1000 g/ha unless otherwise stated, evaluated after 13 days
Method: as §1

[7] = tested on: Amaranthus retoflexus (AMARE); test: Pre-emergence herbicidal test; details: 1000 g/ha unless otherwise stated
[8] = tested on: Solanum nigrum (SOLNI); test: Pre-emergence herbicidal test; details: 1000 g/ha unless otherwise stated
[9] = tested on: Setaria faberi (SETFA); test: Pre-emergence herbicidal test; details: 1000 g/ha unless otherwise stated
[10] = tested on: Lolium perenne (LOLPE); test: Pre-emergence herbicidal test; details: 1000 g/ha unless otherwise stated
[11] = tested on: Echinochloa crus-galli (ECHCG); test: Pre-emergence herbicidal test; details: 1000 g/ha unless otherwise stated
[12] = tested on: Ipomoea hederacea (IPOHE); test: Pre-emergence herbicidal test; details: 1000 g/ha unless otherwise stated

| SMILES | percentage damage caused to the plant, AMARE (five-point scale) [1] | percentage damage caused to the plant, ECHCG (five-point scale) [2] | percentage damage caused to the plant, IPOHE (five-point scale) [3] | percentage damage caused to the plant, LOLPE (five-point scale) [4] | percentage damage caused to the plant, SETFA (five-point scale) [5] | percentage damage caused to the plant, SOLNI (five-point scale) [6] | percentage damage caused to the plant, AMARE (five-point scale) [7] | percentage damage caused to the plant, SOLNI (five-point scale) [8] | percentage damage caused to the plant, SETFA (five-point scale) [9] | percentage damage caused to the plant, LOLPE (five-point scale) [10] | percentage damage caused to the plant, ECHCG (five-point scale) [11] | percentage damage caused to the plant, IPOHE (five-point scale) [12] |
| --- | --- | --- | --- | --- | --- | --- | --- | --- | --- | --- | --- | --- |
| C=Cc1c(C)n(CC)c(-c2ccc(Cl)c(Cl)c2)c(C(=O)O)c1=O [Compound 2.001, 2-(3,4-dichlorophenyl)-1-ethyl-6-methyl-4-oxo-5-vinyl-pyridine-3-carboxylic acid] | 1 (1=0-20%) | 2 (2=21-40%) | 4 (4=61-80%) | 4 (4=61-80%) | 4 (4=61-80%) | 1 (1=0-20%) | 1 (1=0-20%) | 1 (1=0-20%) | 4 (4=61-80%) | 4 (4=61-80%) | 3 (3=41-60%) | 3 (3=41-60%) |
| C#Cc1c(C)n(CC)c(-c2ccc(Cl)c(Cl)c2)c(C(=O)O)c1=O [Compound 2.005, 2-(3,4-dichlorophenyl)-1-ethyl-5-ethynyl-6-methyl-4-oxo-pyridine-3-carboxylic acid] | 5 (5=81-100%) | 3 (3=41-60%) | 4 (4=61-80%) | 5 (5=81-100%) | 5 (5=81-100%) | 4 (4=61-80%) | 1 (1=0-20%) | 4 (4=61-80%) | 4 (4=61-80%) | 1 (1=0-20%) | 1 (1=0-20%) | 4 (4=61-80%) |
| CCn1c(C)c(C(C)=O)c(=O)c(C(=O)O)c1-c1ccc(Cl)c(Cl)c1 [Compound 2.008, 5-acetyl-2-(3,4-dichlorophenyl)-1-ethyl-6-methyl-4-oxo-pyridine-3-carboxylic acid] | 2 (2=21-40%) | 3 (3=41-60%) | 2 (2=21-40%) | 5 (5=81-100%) | 3 (3=41-60%) | 2 (2=21-40%) | 1 (1=0-20%) | 3 (3=41-60%) | 5 (5=81-100%) | 4 (4=61-80%) | 3 (3=41-60%) | 3 (3=41-60%) |
| CCn1c(C)c(C(=O)O)c(=O)c(C(=O)O)c1-c1ccc(Cl)c(Cl)c1 [Compound 2.010, 2-(3,4-dichlorophenyl)-1-ethyl-6-methyl-4-oxo-pyridine-3,5-dicarboxylic acid] | 2 (2=21-40%) | 1 (1=0-20%) | 2 (2=21-40%) | 1 (1=0-20%) | 1 (1=0-20%) | 2 (2=21-40%) | 1 (1=0-20%) | 3 (3=41-60%) | 1 (1=0-20%) | 2 (2=21-40%) | 1 (1=0-20%) | 1 (1=0-20%) |
| C=Cc1c(C)n(CC)c(-c2ccc(Cl)c(Cl)c2)c(C(=O)OC)c1=O [Compound 4.001, methyl 2-(3,4-dichlorophenyl)-1-ethyl-6-methyl-4-oxo-5-vinyl-pyridine-3-carboxylate] | 1 (1=0-20%) | 1 (1=0-20%) | 2 (2=21-40%) | 4 (4=61-80%) | 4 (4=61-80%) | 1 (1=0-20%) | 1 (1=0-20%) | 1 (1=0-20%) | 1 (1=0-20%) | 1 (1=0-20%) | 1 (1=0-20%) | 1 (1=0-20%) |
